# According to patent US8415312B2, “Compound which is a nystatin derivative” (Biosergen AS, priority 2007, dated 2013):
# Several values for one entry are separate records, joined by “and”; a condition that tells them apart may be missing. Equal entries are not always repeated.
# What was measured:
# [1] = test system: Candida albicans ATCC 14053; assay: Antifungal susceptibility study (1), broth microdilution MIC; assay type: cell-based; settings: lowest concentration preventing any visible growth, read at 48 hours, 35° C., RPMI 1640 pH 7.0
# Experimental: (§1) ACROS ORGANICS, New Jersey, USA), pH 7.0, was used in study. […] Then these DMSO solutions were diluted 50-fold (first 10-fold and then 5-fold) in the test medium. […] The solutions were prepared just before using. The organisms used for susceptibility testing were: Candida albicans ATCC 14053, Cryptococcus humicolus ATCC 9949, Aspergillus niger ATCC 16404 and Fusarium oxysporum VKM F-140 (=CMI, IMI 90473). Organisms were stored on potato dextrose agar […] 50% glycerol solution at -70° C. For short-term storage, stock cultures were stored on agar […] 4° C. The cultures of yeasts were sub-cultured onto Sabouraud dextrose (SAB) agar and incubated for 24 hours at 35° C. (Candida albicans) or for 48 hours at 25° C. (Cryptococcus humicolus) to obtain a freshly grown pure culture. The cultures of moulds were sub-cultured onto potato dextrose agar and incubated for 7 days at 35° C. […] (Fusarium oxysporum) to ensure maximum sporulation. […] Inoculum quantitation was performed by plating dilution of the inoculum on Sabouraud dextrose agar to determine the viable number of CFU per milliliter. Sterile 96-well flat-bottomed microtitration plates were used for testing. 100 μl of diluted inocula were dispensed into each microdilution well containing 100 μl of the double dilutions of compounds. Drug-free and yeast/mould-free controls were included. Microdilution trays were incubated at 35° C. (Candida albicans and moulds) or 25° C. (Cryptococcus humicolus) without agitation and observed for the presence or absence of visible growth. […] Minimal inhibitory concentrations (MICs) were read at 48 hours.
# [2] = test system: Cryptococcus humicolus ATCC 9949; assay: as above; assay type: cell-based; settings: lowest concentration preventing any visible growth, read at 48 hours, 25° C., RPMI 1640 pH 7.0
# Experimental: as §1
# [3] = test system: Aspergillus niger ATCC 16404; assay: as above; assay type: cell-based; settings: lowest concentration preventing any visible growth, read at 48 hours, 35° C., RPMI 1640 pH 7.0
# Experimental: (§2) ACROS ORGANICS, New Jersey, USA), pH 7.0, was used in study. […] Then these DMSO solutions were diluted 50-fold (first 10-fold and then 5-fold) in the test medium. […] The solutions were prepared just before using. The organisms used for susceptibility testing were: Candida albicans ATCC 14053, Cryptococcus humicolus ATCC 9949, Aspergillus niger ATCC 16404 and Fusarium oxysporum VKM F-140 (=CMI, IMI 90473). Organisms were stored on potato dextrose agar […] 50% glycerol solution at -70° C. For short-term storage, stock cultures were stored on agar […] 4° C. The cultures of yeasts were sub-cultured onto Sabouraud dextrose (SAB) agar and incubated for 24 hours at 35° C. (Candida albicans) or for 48 hours at 25° C. (Cryptococcus humicolus) to obtain a freshly grown pure culture. The cultures of moulds were sub-cultured onto potato dextrose agar and incubated for 7 days at 35° C. […] (Fusarium oxysporum) to ensure maximum sporulation. […] Finally, the suspensions were vortexed for 15 s to break up clumps of cells and then filtered through four layers of sterile gauze. The densities of conidial spore suspensions was measured at 530 nm and adjusted to 0.09-0.11 for Aspergillus niger and 0.15-0.17 for Fusarium oxysporum. These suspensions were diluted 1:50 with the standard medium. […] Inoculum quantitation was performed by plating dilution of the inoculum on Sabouraud dextrose agar to determine the viable number of CFU per milliliter. Sterile 96-well flat-bottomed microtitration plates were used for testing. 100 μl of diluted inocula were dispensed into each microdilution well containing 100 μl of the double dilutions of compounds. Drug-free and yeast/mould-free controls were included. Microdilution trays were incubated at 35° C. (Candida albicans and moulds) or 25° C. (Cryptococcus humicolus) without agitation and observed for the presence or absence of visible growth. […] Minimal inhibitory concentrations (MICs) were read at 48 hours.
# [4] = test system: Fusarium oxysporum VKM F-140; assay: as above; assay type: cell-based; settings: lowest concentration preventing any visible growth, read at 48 hours, 35° C., RPMI 1640 pH 7.0
# Experimental: as §2
# erythrocytes = assay: In vitro toxicity study, haemolysis (Tables 11 and 12); assay type: cell-based, horse; settings: for Haemolysis of erythrocytes, Mean ± S.E.M.: 25 μM (Table 12); for Haemolysis of erythrocytes: 25 μM, individual blood samples (Table 12)
# Experimental: The toxicity of various nystatin derivatives was tested at 2 and 5 μg/mL and at 25 μM.
# Compounds were dissolved in DMSO at 5 mg/mL and 0.1 mL samples with different concentrations were prepared in DMSO. The samples were mixed with 0.9 mL PBS buffer containing 2.5% horse blood (PBS-HB; kept on ice) and incubated at 37° C. for 30 min without agitation.
# Cells were pelleted by centrifugation at 5000 rpm for 5 min and haemolysis was evaluated by measuring OD545. 100% haemolysis was defined as the OD545 value obtained from a suspension of 2.5% horse blood in distilled water.
# [5] = test system: mice (C57B1/6xDBA/2)F1 B6D2F1; settings: single injection into tail vein, probit analysis
# Experimental: Male mice of hybrids of first generation (C57B1/6xDBA/2)F1 B6D2F1, weight 20-22 g., received from the Central farm. “Kryukovo” of Russian Academies of Medical Science (RAMS) were used. Animals were maintained in a vivarium in plastic cages (with hardwood bedding in environmentally controlled conditions: 24±1° C., 12/12 hours light/dark cycle) on a standard diet of bricketed forages with easy access to drinking water (ad libitum). After a 2-week quarantine period, healthy animals were used in experimental work.
# The solutions were prepared as follows: dry antibiotic substances (5 mg) were mixed with dry sodium deoxycholate (4.1 mg) in a sterile glass vial. 10 mL of phosphate buffer (NaH2PO4—1.59 g; Na2HPO4—0.96 g; H2O—to 100 mL) was added to the mix and the suspension was immediately subjected to vigorous shaking for 10 minutes until homogeneous suspensions were formed.
# Preparations of amphotericin B and S44HP were also prepared in the same way.
# The antibiotic preparations were singly injected into the mice's tail vein within 1-1.5 hours after the preparation of solutions. […] Each antibiotic was used in a range of doses resulting in 0% to 100% lethality and a minimum of 3 intermediate doses. Animals were randomized into groups, each containing 6 mice.
# [6] = test system: Candida albicans (strain 14053 ATCC); assay: Model of the candidiasis sepsis of mice, kidney burden; assay type: in vivo
# Experimental: In experiments used female mice of hybrids of first generation (C57B1/6xDBA/2)F1 (B6D2F1), weight 18-20 g., received from the Central farm “Kryukovo” of Russian Academies of Medical Science (RAMS). Animals were maintained in Institute' vivarium in plastic cages (with hardwood bedding in environmentally controlled room: 24±1° C., 12/12 hours light/dark cycle) on a standard diet of bricketed forages with an easy approach to drinking water (ad libitum). After 2-week quarantine healthy animals were used in experimental work.
# A preparation of comparison was amphotericin B (pure). Solutions of tested preparations prepared ex tempore by the technique specified by the customer.
# Animals were housed on 3 mice and infected intravenously with culture Candida albicans in a doze 1.0 million CFU/mouse in volume of 0.1 ml. It is necessary to note, that doze Candida albicans remained a constant in all experiments. In 30 minutes after infection to mice carried out the first intravenous introduction of tested preparations in corresponding dozes in volume of 0.2 ml (with a speed of 0.2 ml/30 second).
# Experiment has been planned in such a manner that in each experiment one doze (both for amphotericin B was used, and for tested preparations), each doze entered daily within four days, since day of infection (0, 1, 2 and 3 days). At each experiment there was a group untreated, infected with Candida albicans animals. Also there was a group “placebo”, intact (not infected) animals, which intravenously (in the same volume as medical preparations) injected 0.2 ml of solvent—phosphatic buffer +5% glucose (1:1).
# On the post challenge 5th day of experiment, mice were weighed and euthanized (killed) by a cervical dislocation. Then, in sterile conditions, Candida albicans burdens were determined by viable counting of homogenates from the kidneys. The kidneys, which were removed aseptically and weighed, pounded in porcelain mortars with sterile corundum, did dilutions of the received suspensions and sowed on Petri dishes with agar Saburo, incubated for 48 hours at temperature 35° C., then counted up developed colonies Candida albicans and recalculated their quantity on 1 g of kidney' tissue. The first dilution was 10^−1. Zero result at this cultivation accepted for 5 CFU/g.
# For the basic criterion of an assessment of the investigated preparations the maximal effect of the Amphotricin B was accepted (effective dose, ED).
# For significant accepted distinctions of average at P≦0.05 at comparison by Student t-criterion.
# [7] = dose 0.16 mg/kg/d i.v. for four days, day 5, n=3 mice
# [8] = dose 0.62 mg/kg/d i.v. for four days, day 5, n=3 mice
# [9] = dose 2.5 mg/kg/d i.v. for four days, day 5, n=3 mice
# [10] = dose 10 mg/kg/d i.v. for four days, day 5, n=3 mice, zero result accepted for 5 CFU/g
SMILES,MIC Candida albicans ATCC 14053 [1],MIC Cryptococcus humicolus ATCC 9949 [2],MIC Aspergillus niger ATCC 16404 [3],MIC Fusarium oxysporum VKM F-140 [4],"Haemolysis of erythrocytes, Mean ± S.E.M. (erythrocytes)",Haemolysis of erythrocytes (erythrocytes),LD50 [5],MTD [5],"Candida albicans burden in kidneys (Mean) [6, 7]","Candida albicans burden in kidneys (Mean) [6, 8]","Candida albicans burden in kidneys (Mean) [6, 9]","Candida albicans burden in kidneys (Mean) [6, 10]","Candida albicans burden in kidneys (Mean) ([6]; in vivo, iv, 1.25 mg/kg/day)","Candida albicans burden in kidneys (Mean) ([6]; dose 1.25 mg/kg/d i.v. for four days, day 5, n=3 mice)"
"CC1C=CC=CC=CC=CC=CC=CC=CC(OC2OC(C)C(O)C(NCC3(O)OCC(O)C(O)C3O)C2O)CC2OC(O)(CC(O)C(O)CCC(O)CC(O)CC(O)CC(=O)OC(C)C(C)C1O)CC(O)C2C(=O)O (single isomer, unassigned) [Compound 17]",1 µg/mL,1 µg/mL,2 µg/mL,8 µg/mL,2.4 ± 0.6%,1.7% (2×) and 2.1% and 0.8% and 3.3% and 4.8%,,,,,,,,
"CC1C=CC=CC=CC=CC=CC=CC=CC(OC2OC(C)C(O)C(NCC3(O)OCC(O)C(O)C3O)C2O)CC2OC(O)(CC(O)C(O)CCC(O)CC(O)CC(O)CC(=O)OC(C)C(C)C1O)CC(O)C2C(=O)O (single isomer, unassigned) [Compound 18]",1 µg/mL,1 µg/mL,2 µg/mL,8 µg/mL,3.9 ± 1.3%,3.0% and 3.2% and 9.7% and 1.0% and 1.5% and 5.3%,,,,,,,,
CC1C=CC=CC=CC=CC=CC=CC=CC(OC2OC(C)C(O)C(N)C2O)CC2OC(O)(CC(O)C(O)CCC(O)CC(O)CC(O)CC(=O)OC(C)C(C)C1O)CC(O)C2C(=O)NCCO (stereo not shown) [Compound 5],2 µg/mL,4 µg/mL,4 µg/mL,4 µg/mL,1.6 ± 0.2%,1% and 1.9% and 1.3% and 2% and 1.8% and 2.1%,,,,,,,,
CNC(=O)C1C(O)CC2(O)CC(O)C(O)CCC(O)CC(O)CC(O)CC(=O)OC(C)C(C)C(O)C(C)C=CC=CC=CC=CC=CC=CC=CC(OC3OC(C)C(O)C(N)C3O)CC1O2 (stereo not shown) [Compound 6],2 µg/mL,2 µg/mL,4 µg/mL,4 µg/mL,3.7 ± 0.6%,3.7% and 4.3% and 3.2% and 2% and 2.4% and 3.3% and 7%,,,,,,,,
CC1O[C@@H](O[C@H]2/C=C/C=C/C=C/C=C/C=C/C=C/C=C/[C@H](C)[C@@H](O)[C@@H](C)[C@H](C)OC(=O)C[C@H](O)C[C@H](O)C[C@H](O)CC[C@@H](O)[C@H](O)C[C@]3(O)C[C@H](O)[C@@H](C(=O)NCCN(C)C)[C@H](C2)O3)[C@H](O)C(NCC2(O)OC[C@@H](O)[C@@H](O)[C@@H]2O)[C@@H]1O.Cl (stereo partly shown) [Compound 41],0.5 µg/mL,1 µg/mL,1 µg/mL,2 µg/mL,,,38.6 mg/kg,21.2 mg/kg,67000 CFU/g,22667 CFU/g,1667 CFU/g,5 CFU/g,2767 CFU/g,
"CC1O[C@@H](O[C@H]2/C=C/C=C/C=C/C=C/C=C/C=C/C=C/[C@H](C)[C@@H](O)[C@@H](C)[C@H](C)OC(=O)C[C@H](O)C[C@H](O)C[C@H](O)CC[C@@H](O)[C@H](O)C[C@]3(O)C[C@H](O)[C@@H](C(=O)NCCN(C)C)[C@H](C2)O3)[C@H](O)C(N)[C@@H]1O (stereo partly shown) [Compound 48, N,N-dimethylaminoethyl (DMAE) S44HP Amide]",0.5 µg/mL,0.5 µg/mL,1 µg/mL,1 µg/mL,,,32.2 mg/kg,25.9 mg/kg,51667 CFU/g,3233 CFU/g,63 CFU/g,5 CFU/g,,1487 CFU/g
